Literature values, collected in US10640830B2, “Drug selection for non-small cell lung cancer therapy” (NESTEC S.A., priority 2013, dated 2020).
One block for each compound: values may come before it.

How the values were obtained:
[1] = in vivo
[2] = early Phase I evaluation
human xenograft models = conditions: dosed orally in human xenograft models

- oral bioavailability [1]: good oral bioavailability
SMILES: COc1cc2c(Oc3ccc(NC(=O)C4(C(=O)Nc5ccc(F)cc5)CC4)cc3F)ccnc2cc1OCCCN1CCOCC1 [GSK 1363089/XL880]
- CYP450 substrate / inhibitor / inducer (CYP450): CYP450 substrate, but not an inhibitor or inducer

SMILES: CN(C[C@@H]1COCCO1)S(=O)(=O)Nc1ccc2ccc3ncc(-c4cnn(C)c4)cc3c(=O)c2c1 [MK-2461]
- tolerability [2]: well tolerated

SMILES: Cn1cc(-c2ccc3nnc(Sc4ccc5ncccc5c4)n3n2)cn1 [SGX523]
- antitumor activity (human xenograft models): potent antitumor activity
- toxicity (human xenograft models): no overt toxicity
